# Article PMC10211317, “Identification of ARUK2002821 as an isoform-selective PI5P4Kα inhibitor” (RSC Medicinal Chemistry, 2023)
# Columns and labels:
# Assay in all cases: Premier Screen kinase panel (MRC PPU)
# Format in all cases: biochemical
# TTK = TTK (Homo sapiens, UniProt P33981); details: TTK (Entrez TTK), read-out: Residual activity (%)
# Experimental: (§1) room temperature with shaking for 30 minutes. The kinase concentration in the eluates was measured by qPCR.
# (§2) using ADP-GloTM assay at the MRC PPU International Centre for Kinase Profiling, University of Dundee.
# (§3) Conducted by MRC PPU International Centre
# (§4) Conducted by MRC PPU International Centre for […]
# SIK2 = SIK2 (Homo sapiens, UniProt Q9H0K1); details: SIK2 (Entrez SIK2), read-out: Residual activity (%)
# Experimental: as §1, §2, §3, §4
# PDK1 = PDK1 (Homo sapiens, UniProt O15530); details: PDK1 (Entrez PDPK1), read-out: Residual activity (%)
# Experimental: as §1, §2, §3, §4
# HIPK3 = HIPK3 (Homo sapiens, UniProt Q9H422); details: HIPK3 (Entrez HIPK3), read-out: Residual activity (%)
# Experimental: as §1, §2, §3, §4
# EPH-B1 = EPH-B1 (Homo sapiens, UniProt P54762); details: EPH-B1 (Entrez EPHB1), read-out: Residual activity (%)
# Experimental: as §1, §2, §3, §4
# PKCz = PKCz (Homo sapiens, UniProt Q05513); details: PKCz (Entrez PRKCZ), read-out: Residual activity (%)
# Experimental: as §1, §2, §3, §4
# IR = IR (Homo sapiens, UniProt P06213); details: IR (Entrez INSR), read-out: Residual activity (%)
# Experimental: as §1, §2, §3, §4
# MLK1 = MLK1 (Homo sapiens, UniProt P80192); details: MLK1 (Entrez MAP3K9), read-out: Residual activity (%)
# Experimental: as §1, §2, §3, §4
# BRSK1 = BRSK1 (Homo sapiens, UniProt Q8TDC3); details: BRSK1 (Entrez BRSK1), read-out: Residual activity (%)
# Experimental: as §1, §2, §3, §4
# HIPK2 = HIPK2 (Homo sapiens, UniProt Q9H2X6); details: HIPK2 (Entrez HIPK2), read-out: Residual activity (%)
# Experimental: as §1, §2, §3, §4
# JNK3 = JNK3 (Homo sapiens, UniProt P53779); details: JNK3 (Entrez MAPK10), read-out: Residual activity (%)
# Experimental: as §1, §2, §3, §4
# TESK1 = TESK1 (Homo sapiens, UniProt Q15569); details: TESK1 (Entrez TESK1), read-out: Residual activity (%)
# Experimental: as §1, §2, §3, §4
# RSK2 = RSK2 (Homo sapiens, UniProt P51812); details: RSK2 (Entrez RPS6KA3), read-out: Residual activity (%)
# Experimental: as §1, §2, §3, §4
# TTBK2 = TTBK2 (Homo sapiens, UniProt Q6IQ55); details: TTBK2 (Entrez TTBK2), read-out: Residual activity (%)
# Experimental: as §1, §2, §3, §4
# BTK = BTK (Homo sapiens, UniProt Q06187); details: BTK (Entrez BTK), read-out: Residual activity (%)
# Experimental: as §1, §2, §3, §4
# DYRK1A = DYRK1A (Homo sapiens, UniProt Q13627); details: DYRK1A (Entrez DYRK1A), read-out: Residual activity (%)
# Experimental: as §1, §2, §3, §4
# YES1 = YES1 (Homo sapiens, UniProt P07947); details: YES1 (Entrez YES1), read-out: Residual activity (%)
# Experimental: as §1, §2, §3, §4
# PKCγ = PKCγ (Homo sapiens, UniProt P05129); details: read-out: Residual activity (%)
# Experimental: as §1, §2, §3, §4
# JAK3 = JAK3 (Homo sapiens, UniProt P52333); details: JAK3 (Entrez JAK3), read-out: Residual activity (%)
# Experimental: as §1, §2, §3, §4
# CAMK1 = CAMK1 (Homo sapiens, UniProt Q14012); details: CAMK1 (Entrez CAMK1), read-out: Residual activity (%)
# Experimental: as §1, §2, §3, §4
# MINK1 = MINK1 (Homo sapiens, UniProt Q8N4C8); details: MINK1 (Entrez MINK1), read-out: Residual activity (%)
# Experimental: as §1, §2, §3, §4
# MARK3 = MARK3 (Homo sapiens, UniProt P27448); details: MARK3 (Entrez MARK3), read-out: Residual activity (%)
# Experimental: as §1, §2, §3, §4
# AMPK (hum) = AMPK (hum) (Homo sapiens, UniProt Q13131); details: AMPK (hum) (Entrez PRKAA1 + PRKAB2 + PRKAG1), read-out: Residual activity (%)
# Experimental: as §1, §2, §3, §4
# CK1γ2 = CK1γ2 (Homo sapiens, UniProt P78368); details: CK1γ2 (Entrez CSNK1D), read-out: Residual activity (%)
# Experimental: as §1, §2, §3, §4
# DYRK3 = DYRK3 (Homo sapiens, UniProt O43781); details: DYRK3 (Entrez DYRK3), read-out: Residual activity (%)
# Experimental: as §1, §2, §3, §4
# EPH-B3 = EPH-B3 (Homo sapiens, UniProt P54753); details: EPH-B3 (Entrez EPHB3), read-out: Residual activity (%)
# Experimental: as §1, §2, §3, §4
# PKCa = PKCa (Homo sapiens, UniProt P17252); details: PKCa (Entrez PRKCA), read-out: Residual activity (%)
# Experimental: as §1, §2, §3, §4
# GSK3b = GSK3b (Homo sapiens, UniProt P49841); details: GSK3b (Entrez GSK3B), read-out: Residual activity (%)
# Experimental: as §1, §2, §3, §4
# PKBa = PKBa (Homo sapiens, UniProt P31749); details: PKBa (Entrez AKT1), read-out: Residual activity (%)
# Experimental: as §1, §2, §3, §4
# PKD1 = PKD1 (Homo sapiens, UniProt Q15139); details: PKD1 (Entrez PKD1), read-out: Residual activity (%)
# Experimental: as §1, §2, §3, §4
# MSK1 = MSK1 (Homo sapiens, UniProt O75582); details: MSK1 (Entrez RPS6KA5), read-out: Residual activity (%)
# Experimental: as §1, §2, §3, §4
# Chain of BTK (Q06187 whole entry): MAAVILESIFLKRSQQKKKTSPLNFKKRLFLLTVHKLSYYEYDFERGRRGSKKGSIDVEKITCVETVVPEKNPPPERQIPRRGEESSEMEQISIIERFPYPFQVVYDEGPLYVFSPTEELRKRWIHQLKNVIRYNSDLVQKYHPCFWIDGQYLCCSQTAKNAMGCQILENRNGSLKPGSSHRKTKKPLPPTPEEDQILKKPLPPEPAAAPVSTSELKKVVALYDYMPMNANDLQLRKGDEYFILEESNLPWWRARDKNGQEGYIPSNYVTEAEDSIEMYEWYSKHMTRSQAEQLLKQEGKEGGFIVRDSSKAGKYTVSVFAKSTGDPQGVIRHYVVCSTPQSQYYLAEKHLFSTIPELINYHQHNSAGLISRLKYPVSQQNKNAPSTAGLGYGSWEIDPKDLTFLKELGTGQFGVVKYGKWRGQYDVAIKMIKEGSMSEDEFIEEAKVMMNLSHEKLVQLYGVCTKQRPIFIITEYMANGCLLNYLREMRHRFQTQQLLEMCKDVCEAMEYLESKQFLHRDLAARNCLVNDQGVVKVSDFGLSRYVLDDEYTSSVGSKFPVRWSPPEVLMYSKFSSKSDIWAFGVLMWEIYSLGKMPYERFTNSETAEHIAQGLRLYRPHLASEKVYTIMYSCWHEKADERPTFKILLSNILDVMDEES
# Chain of SIK2 (Q9H0K1 whole entry): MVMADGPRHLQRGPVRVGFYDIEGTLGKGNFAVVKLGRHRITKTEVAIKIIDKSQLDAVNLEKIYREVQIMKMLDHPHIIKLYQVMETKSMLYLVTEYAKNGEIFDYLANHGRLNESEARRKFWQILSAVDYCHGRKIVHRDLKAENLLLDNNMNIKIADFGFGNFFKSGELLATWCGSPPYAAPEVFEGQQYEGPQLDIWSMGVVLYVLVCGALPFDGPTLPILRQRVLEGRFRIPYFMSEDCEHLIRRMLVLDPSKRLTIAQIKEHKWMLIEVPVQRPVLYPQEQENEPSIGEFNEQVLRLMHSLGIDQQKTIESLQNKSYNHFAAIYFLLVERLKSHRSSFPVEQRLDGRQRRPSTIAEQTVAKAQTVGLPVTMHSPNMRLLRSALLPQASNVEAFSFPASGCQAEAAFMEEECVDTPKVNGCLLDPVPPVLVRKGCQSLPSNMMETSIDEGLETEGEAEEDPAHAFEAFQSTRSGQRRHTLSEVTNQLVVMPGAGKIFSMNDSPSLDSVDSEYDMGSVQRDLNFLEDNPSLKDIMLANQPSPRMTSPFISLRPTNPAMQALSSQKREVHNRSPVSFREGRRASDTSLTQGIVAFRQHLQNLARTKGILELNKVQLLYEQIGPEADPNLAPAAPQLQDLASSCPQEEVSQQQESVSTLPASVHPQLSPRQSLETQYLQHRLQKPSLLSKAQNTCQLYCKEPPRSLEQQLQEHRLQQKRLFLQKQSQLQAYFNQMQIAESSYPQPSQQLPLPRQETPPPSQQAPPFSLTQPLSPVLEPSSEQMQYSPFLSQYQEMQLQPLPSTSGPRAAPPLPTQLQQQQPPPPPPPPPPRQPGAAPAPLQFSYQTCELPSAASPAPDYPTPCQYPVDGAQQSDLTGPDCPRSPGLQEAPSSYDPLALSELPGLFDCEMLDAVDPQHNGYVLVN
# Chain of CK1γ2 (P78368 whole entry): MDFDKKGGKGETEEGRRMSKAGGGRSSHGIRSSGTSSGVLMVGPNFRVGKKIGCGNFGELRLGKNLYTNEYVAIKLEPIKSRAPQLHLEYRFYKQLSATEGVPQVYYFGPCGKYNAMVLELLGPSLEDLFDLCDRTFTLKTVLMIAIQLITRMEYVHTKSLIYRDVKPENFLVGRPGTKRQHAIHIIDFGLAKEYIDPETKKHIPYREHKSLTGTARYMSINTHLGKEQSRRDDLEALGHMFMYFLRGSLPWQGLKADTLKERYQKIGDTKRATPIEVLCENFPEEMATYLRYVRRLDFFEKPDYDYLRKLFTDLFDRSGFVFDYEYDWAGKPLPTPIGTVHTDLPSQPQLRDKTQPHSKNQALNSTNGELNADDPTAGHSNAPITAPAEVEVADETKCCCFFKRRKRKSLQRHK
# Chain of IR (P06213 28-1382): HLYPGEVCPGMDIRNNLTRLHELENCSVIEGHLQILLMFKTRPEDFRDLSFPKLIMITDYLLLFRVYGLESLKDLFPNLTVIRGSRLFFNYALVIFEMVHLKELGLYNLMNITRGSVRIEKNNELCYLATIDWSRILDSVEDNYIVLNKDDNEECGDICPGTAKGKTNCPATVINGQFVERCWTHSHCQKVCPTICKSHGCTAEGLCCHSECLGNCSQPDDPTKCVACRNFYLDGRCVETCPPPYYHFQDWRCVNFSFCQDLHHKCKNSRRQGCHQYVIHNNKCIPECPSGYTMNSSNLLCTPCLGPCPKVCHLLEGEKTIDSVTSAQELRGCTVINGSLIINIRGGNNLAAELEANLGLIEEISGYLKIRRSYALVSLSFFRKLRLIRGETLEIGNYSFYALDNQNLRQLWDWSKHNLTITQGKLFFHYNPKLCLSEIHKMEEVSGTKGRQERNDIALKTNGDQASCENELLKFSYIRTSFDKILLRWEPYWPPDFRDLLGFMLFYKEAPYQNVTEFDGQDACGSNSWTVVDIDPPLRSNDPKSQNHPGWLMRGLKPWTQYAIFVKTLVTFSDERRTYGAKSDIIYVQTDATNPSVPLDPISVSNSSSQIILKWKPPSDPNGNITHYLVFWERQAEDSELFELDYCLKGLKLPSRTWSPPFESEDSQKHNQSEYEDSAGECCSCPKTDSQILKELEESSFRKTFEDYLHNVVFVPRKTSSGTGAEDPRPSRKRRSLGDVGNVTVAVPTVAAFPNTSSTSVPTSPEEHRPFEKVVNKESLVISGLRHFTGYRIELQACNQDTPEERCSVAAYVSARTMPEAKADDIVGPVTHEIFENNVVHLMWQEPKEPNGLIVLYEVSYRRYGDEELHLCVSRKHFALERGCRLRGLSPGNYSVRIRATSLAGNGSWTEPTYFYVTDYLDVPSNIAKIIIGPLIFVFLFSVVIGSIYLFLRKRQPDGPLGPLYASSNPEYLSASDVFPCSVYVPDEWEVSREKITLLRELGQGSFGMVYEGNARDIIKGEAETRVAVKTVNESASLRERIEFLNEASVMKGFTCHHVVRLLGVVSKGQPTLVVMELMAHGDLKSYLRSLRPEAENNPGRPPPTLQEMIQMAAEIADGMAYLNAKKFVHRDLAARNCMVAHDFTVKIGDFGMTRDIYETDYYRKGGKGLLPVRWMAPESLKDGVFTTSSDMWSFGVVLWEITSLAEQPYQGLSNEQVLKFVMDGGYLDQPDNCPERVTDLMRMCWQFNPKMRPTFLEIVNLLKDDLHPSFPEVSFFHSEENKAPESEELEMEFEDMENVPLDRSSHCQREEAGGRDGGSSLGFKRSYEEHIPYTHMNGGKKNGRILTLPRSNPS
# Chain of GSK3b (P49841 whole entry): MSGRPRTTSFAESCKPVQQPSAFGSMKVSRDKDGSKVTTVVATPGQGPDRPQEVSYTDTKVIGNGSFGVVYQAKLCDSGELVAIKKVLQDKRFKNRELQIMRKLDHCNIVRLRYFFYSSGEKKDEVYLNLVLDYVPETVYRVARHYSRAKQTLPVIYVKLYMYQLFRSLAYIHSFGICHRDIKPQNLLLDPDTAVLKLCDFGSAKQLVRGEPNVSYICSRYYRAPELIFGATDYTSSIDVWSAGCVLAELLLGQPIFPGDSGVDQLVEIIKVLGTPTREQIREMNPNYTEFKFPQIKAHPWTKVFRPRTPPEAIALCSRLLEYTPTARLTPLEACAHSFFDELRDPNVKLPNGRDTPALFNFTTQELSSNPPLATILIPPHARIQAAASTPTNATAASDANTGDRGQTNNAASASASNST
# Chain of HIPK3 (Q9H422 whole entry): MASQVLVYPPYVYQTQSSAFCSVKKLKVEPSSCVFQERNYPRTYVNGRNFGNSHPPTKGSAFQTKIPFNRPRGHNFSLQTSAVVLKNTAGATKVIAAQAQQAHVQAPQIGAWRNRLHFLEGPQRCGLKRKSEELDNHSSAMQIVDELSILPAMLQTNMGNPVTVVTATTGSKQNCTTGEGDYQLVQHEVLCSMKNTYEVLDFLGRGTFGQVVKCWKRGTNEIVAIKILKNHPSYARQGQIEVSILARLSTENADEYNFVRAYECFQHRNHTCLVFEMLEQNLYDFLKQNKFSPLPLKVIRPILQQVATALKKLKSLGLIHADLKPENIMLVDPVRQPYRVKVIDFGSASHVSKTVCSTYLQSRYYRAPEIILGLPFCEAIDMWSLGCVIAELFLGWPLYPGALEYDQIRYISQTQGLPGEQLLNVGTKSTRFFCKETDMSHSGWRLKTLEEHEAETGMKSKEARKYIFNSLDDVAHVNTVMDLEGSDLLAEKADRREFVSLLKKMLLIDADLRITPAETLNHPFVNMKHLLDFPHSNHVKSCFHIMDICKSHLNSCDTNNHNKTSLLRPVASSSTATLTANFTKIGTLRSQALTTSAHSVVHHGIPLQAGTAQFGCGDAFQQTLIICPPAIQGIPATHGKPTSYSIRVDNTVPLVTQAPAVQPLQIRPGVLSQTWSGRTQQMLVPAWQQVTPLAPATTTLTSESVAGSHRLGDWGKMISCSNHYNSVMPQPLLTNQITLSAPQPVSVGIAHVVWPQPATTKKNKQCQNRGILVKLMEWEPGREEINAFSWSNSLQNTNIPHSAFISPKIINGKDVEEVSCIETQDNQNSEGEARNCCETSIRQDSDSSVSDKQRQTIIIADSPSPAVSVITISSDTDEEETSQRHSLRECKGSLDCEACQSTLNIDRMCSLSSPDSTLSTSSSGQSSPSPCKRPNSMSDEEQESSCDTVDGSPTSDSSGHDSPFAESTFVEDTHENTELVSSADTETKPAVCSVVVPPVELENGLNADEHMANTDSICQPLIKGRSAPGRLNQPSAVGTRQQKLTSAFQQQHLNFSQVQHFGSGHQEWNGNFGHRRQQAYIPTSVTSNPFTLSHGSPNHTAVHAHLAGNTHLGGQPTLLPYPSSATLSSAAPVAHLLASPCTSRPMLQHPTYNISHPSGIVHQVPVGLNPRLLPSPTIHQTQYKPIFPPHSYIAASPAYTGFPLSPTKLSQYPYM
smiles,measurement,setting,value
COc1ccc(Nc2ncnc3c2ccn3-c2ccc(C)c(C)c2)cc1Cl [compound 36],remaining activity at 1 µM,TTK,87%
same,remaining activity at 1 µM,SIK2,109%
same,remaining activity at 1 µM,PDK1,133%
same,remaining activity at 1 µM,HIPK3,76%
same,remaining activity at 1 µM,EPH-B1,126%
same,remaining activity at 1 µM,PKCz,111%
same,remaining activity at 1 µM,IR,108%
same,remaining activity at 1 µM,MLK1,70%
same,remaining activity at 1 µM,BRSK1,97%
same,remaining activity at 1 µM,HIPK2,90%
same,remaining activity at 1 µM,JNK3,89%
same,remaining activity at 1 µM,TESK1,88%
same,remaining activity at 1 µM,RSK2,77%
same,remaining activity at 1 µM,TTBK2,70%
same,remaining activity at 1 µM,BTK,99%
same,remaining activity at 1 µM,DYRK1A,89%
same,remaining activity at 1 µM,YES1,98%
same,remaining activity at 1 µM,PKCγ,107%
same,remaining activity at 1 µM,JAK3,63%
same,remaining activity at 1 µM,CAMK1,99%
same,remaining activity at 1 µM,MINK1,107%
same,remaining activity at 1 µM,MARK3,104%
same,remaining activity at 1 µM,AMPK (hum),94%
same,remaining activity at 1 µM,CK1γ2,92%
same,remaining activity at 1 µM,DYRK3,68%
same,remaining activity at 1 µM,EPH-B3,79%
same,remaining activity at 1 µM,PKCa,96%
same,remaining activity at 1 µM,GSK3b,102%
same,remaining activity at 1 µM,PKBa,90%
same,remaining activity at 1 µM,PKD1,93%
same,remaining activity at 1 µM,MSK1,103%
